Source: a compilation of properties of binary mixtures (doi:10.1021/acs.jpcb.7b01654)

Experiment: xn = mol fraction of the nth substance listed
Settings: 100 kPa

Structure (SMILES): CC[n+]1ccn(C)c1.O=S(=O)([N-]S(=O)(=O)C(F)(F)F)C(F)(F)F + CCCCCCCCCCCC[n+]1ccn(C)c1.O=S(=O)([N-]S(=O)(=O)C(F)(F)F)C(F)(F)F
- viscosity (283 K, x2 = 0): 56.8 mPa·s
- viscosity (288 K, x2 = 0): 44.6 mPa·s
- viscosity (298 K, x2 = 0): 29.7 mPa·s
- viscosity (303 K, x2 = 0): 24.8 mPa·s
- viscosity (308 K, x2 = 0): 21 mPa·s
- viscosity (318 K, x2 = 0): 15.57 mPa·s
- viscosity (323 K, x2 = 0): 13.28 mPa·s

Structure (SMILES): CCCCCCCCCCCC[n+]1ccn(C)c1.O=S(=O)([N-]S(=O)(=O)C(F)(F)F)C(F)(F)F + CC[n+]1ccn(C)c1.O=S(=O)([N-]S(=O)(=O)C(F)(F)F)C(F)(F)F
- viscosity (293 K, x1 = 0.01): 36.2 mPa·s
- viscosity (293 K, x1 = 0.04): 37.9 mPa·s
- viscosity (293 K, x1 = 0.08): 41.4 mPa·s
- viscosity (293 K, x1 = 0.16): 47.6 mPa·s
- viscosity (293 K, x1 = 0.24): 57.4 mPa·s
- viscosity (293 K, x1 = 0.32): 69.1 mPa·s
- viscosity (293 K, x1 = 0.43): 85.1 mPa·s
- viscosity (293 K, x1 = 0.52): 94.7 mPa·s
- viscosity (293 K, x1 = 0.63): 116 mPa·s
- viscosity (293 K, x1 = 0.74): 137 mPa·s
- viscosity (293 K, x1 = 0.87): 158 mPa·s
- viscosity (293 K, x1 = 0.92): 182 mPa·s
- viscosity (293 K, x1 = 1): 193 mPa·s
- viscosity (293 K, x2 = 0.01): 199 mPa·s
- viscosity (298 K, x1 = 0.01): 29.4 mPa·s
- viscosity (298 K, x1 = 0.04): 30.8 mPa·s
- viscosity (298 K, x1 = 0.08): 33.5 mPa·s
- viscosity (298 K, x1 = 0.24): 45.7 mPa·s
- viscosity (298 K, x1 = 0.32): 54.2 mPa·s
- viscosity (298 K, x1 = 0.43): 66 mPa·s
- viscosity (298 K, x1 = 0.52): 73.2 mPa·s
- viscosity (298 K, x1 = 0.63): 88.7 mPa·s
- viscosity (298 K, x1 = 0.74): 104 mPa·s
- viscosity (298 K, x1 = 0.87): 119 mPa·s
- viscosity (298 K, x1 = 0.92): 135 mPa·s
- viscosity (298 K, x1 = 0.96): 149 mPa·s
- viscosity (298 K, x1 = 1): 143 mPa·s
- viscosity (298 K, x2 = 0.01): 149 mPa·s
- viscosity (303 K, x1 = 0.01): 24.3 mPa·s
- viscosity (303 K, x1 = 0.04): 25.5 mPa·s
- viscosity (303 K, x1 = 0.08): 27.6 mPa·s
- viscosity (303 K, x1 = 0.32): 43.6 mPa·s
- viscosity (303 K, x1 = 0.43): 52.4 mPa·s
- viscosity (303 K, x1 = 0.52): 57.7 mPa·s
- viscosity (303 K, x1 = 0.63): 69.3 mPa·s
- viscosity (303 K, x1 = 0.74): 80.6 mPa·s
- viscosity (303 K, x1 = 0.87): 91.7 mPa·s
- viscosity (303 K, x1 = 0.92): 102 mPa·s
- viscosity (303 K, x1 = 0.96): 114 mPa·s
- viscosity (303 K, x2 = 0.01): 113 mPa·s
- viscosity (308 K, x1 = 0.01): 20.5 mPa·s
- viscosity (308 K, x1 = 0.04): 21.5 mPa·s
- viscosity (308 K, x1 = 0.08): 23.2 mPa·s
- viscosity (308 K, x1 = 0.16): 26.1 mPa·s
- viscosity (308 K, x1 = 0.24): 30.7 mPa·s
- viscosity (308 K, x1 = 0.32): 35.6 mPa·s
- viscosity (308 K, x1 = 0.43): 42.4 mPa·s
- viscosity (308 K, x1 = 0.52): 46.6 mPa·s
- viscosity (308 K, x1 = 0.63): 55.3 mPa·s
- viscosity (308 K, x1 = 0.87): 71.9 mPa·s
- viscosity (308 K, x1 = 0.92): 79 mPa·s
- viscosity (308 K, x1 = 1): 84 mPa·s
- viscosity (308 K, x2 = 0.01): 88.4 mPa·s
- viscosity (313 K, x1 = 0.01): 17.6 mPa·s
- viscosity (313 K, x1 = 0.04): 18.4 mPa·s
- viscosity (313 K, x1 = 0.08): 19.8 mPa·s
- viscosity (313 K, x1 = 0.16): 22.1 mPa·s
- viscosity (313 K, x1 = 0.24): 25.7 mPa·s
- viscosity (313 K, x1 = 0.32): 29.6 mPa·s
- viscosity (313 K, x1 = 0.43): 34.8 mPa·s
- viscosity (313 K, x1 = 0.52): 38.3 mPa·s
- viscosity (313 K, x1 = 0.63): 44.8 mPa·s
- viscosity (313 K, x1 = 0.74): 51.3 mPa·s
- viscosity (313 K, x1 = 0.87): 57.4 mPa·s
- viscosity (313 K, x1 = 0.92): 62.1 mPa·s
- viscosity (313 K, x1 = 1): 66.2 mPa·s
- viscosity (313 K, x2 = 0.01): 70 mPa·s
- viscosity (318 K, x1 = 0.01): 15.26 mPa·s
- viscosity (318 K, x1 = 0.04): 15.96 mPa·s
- viscosity (318 K, x1 = 0.08): 17 mPa·s
- viscosity (318 K, x1 = 0.16): 19 mPa·s
- viscosity (318 K, x1 = 0.24): 21.9 mPa·s
- viscosity (318 K, x1 = 0.32): 24.8 mPa·s
- viscosity (318 K, x1 = 0.43): 28.9 mPa·s
- viscosity (318 K, x1 = 0.52): 31.7 mPa·s
- viscosity (318 K, x1 = 0.63): 36.9 mPa·s
- viscosity (318 K, x1 = 0.74): 42 mPa·s
- viscosity (318 K, x1 = 0.87): 46.5 mPa·s
- viscosity (318 K, x1 = 0.92): 49.8 mPa·s
- viscosity (318 K, x1 = 0.96): 56.2 mPa·s
- viscosity (318 K, x1 = 1): 53 mPa·s
- viscosity (318 K, x2 = 0.01): 56.3 mPa·s
- viscosity (323 K, x1 = 0.01): 13.19 mPa·s
- viscosity (323 K, x1 = 0.04): 13.82 mPa·s
- viscosity (323 K, x1 = 0.16): 16 mPa·s
- viscosity (323 K, x1 = 0.24): 18.6 mPa·s
- viscosity (323 K, x1 = 0.43): 23.8 mPa·s
- viscosity (323 K, x1 = 0.52): 26.1 mPa·s
- viscosity (323 K, x1 = 0.63): 30.3 mPa·s
- viscosity (323 K, x1 = 0.87): 37.4 mPa·s
- viscosity (323 K, x1 = 0.92): 40.2 mPa·s
- viscosity (323 K, x1 = 0.96): 45.5 mPa·s
- viscosity (323 K, x1 = 1): 42.65 mPa·s
- viscosity (328 K, x1 = 0.01): 11.69 mPa·s
- viscosity (328 K, x1 = 0.08): 12.89 mPa·s
- viscosity (328 K, x1 = 0.16): 14.06 mPa·s
- viscosity (328 K, x1 = 0.24): 16.17 mPa·s
- viscosity (328 K, x1 = 0.32): 18 mPa·s
- viscosity (328 K, x1 = 0.43): 20.4 mPa·s
- viscosity (328 K, x1 = 0.52): 22.2 mPa·s
- viscosity (328 K, x1 = 0.63): 25.5 mPa·s
- viscosity (328 K, x1 = 0.74): 28.7 mPa·s
- viscosity (328 K, x1 = 0.87): 31.1 mPa·s
- viscosity (328 K, x1 = 0.92): 33 mPa·s
- viscosity (328 K, x1 = 0.96): 37.4 mPa·s
- viscosity (328 K, x1 = 1): 34.9 mPa·s
- viscosity (328 K, x2 = 0.01): 37.5 mPa·s
- viscosity (333 K, x1 = 0.01): 10.4 mPa·s
- viscosity (333 K, x1 = 0.04): 10.81 mPa·s
- viscosity (333 K, x1 = 0.08): 11.37 mPa·s
- viscosity (333 K, x1 = 0.24): 14.13 mPa·s
- viscosity (333 K, x1 = 0.32): 15.5 mPa·s
- viscosity (333 K, x1 = 0.43): 17.6 mPa·s
- viscosity (333 K, x1 = 0.52): 19.1 mPa·s
- viscosity (333 K, x1 = 0.63): 21.7 mPa·s
- viscosity (333 K, x1 = 0.74): 24.1 mPa·s
- viscosity (333 K, x1 = 0.87): 26.1 mPa·s
- viscosity (333 K, x1 = 0.96): 31.2 mPa·s
- viscosity (333 K, x1 = 1): 28.87 mPa·s
- viscosity (333 K, x2 = 0.01): 31.3 mPa·s
